Data reported in article PMC10989073, “Antineoplastic effect of compounds C14 and P8 on TNBC and radioresistant TNBC cells by stabilizing the K-Ras4B^G13D/PDE6δ complex” (Frontiers in Oncology, 2024).
Read-outs that look alike come from different tables or passages of the source.

Legend:
Type in all cases: cell-based, human
MCF-10A cells = test: Clonogenic assay; details: 10 to 12 days, C14 and P8 at IC50-48, cisplatin 100 µM, doxorubicin 0.5 µM
Method: The principal aim of a clonogenic assay is to evaluate the effect of chemotherapy agents or new drugs by the measurement of their ability to arrest tumor cell division and their ability to develop new colonies after their exposure to these new drugs ([56]). Therefore, the colony formation ability of the cell lines MCF-10A, MDA-MB-231, and MDA-MB-231RR was evaluated after their exposure to the C14 and P8 compounds. In brief, breast cancer cell lines were cultured in 6-well plates (Corning), seeding 300 cells per well, and incubated at 37°C in 5% CO2 for 24 h. Compounds C14 and P8 were added at the maximum evaluated concentration IC50-48. As controls, cells without treatment and cells treated in the presence of a vehicle (DMSO at 0.66%) were employed (Sigma-Aldrich). […] After 10 days of treatment, cells were fixed with 4% PFA and stained with 0.1% crystal violet in citric acid (Sigma-Aldrich) for 15 minutes. Subsequently, the dye present in the cells was extracted using isopropanol and read at 570 nm in a Synergy-HTX microplate reader (BioTek). Each test was performed in triplicate. Data were expressed as % colonies relative to the untreated control ([56]).

[1] = system: AKT and ERK phosphorylation in MCF-10A cells; test: Western blotting of pAKT and pERK; details: IC50-48 for 3 h, EGF 100 ng/ml 10 min, densitometry
Method: (§1) To determine the effect of the C14 and P8 compounds over the protein effectors of K-Ras4B, AKT, and ERK, immunoblotting assays were conducted with specific antibodies. In brief, MCF-10A, MDA-MB-231, and MDA-MB-231RR cells were plated in 100-mm culture dishes until 80% of confluents. Cell adhesion was allowed for 24 h. […] After pre-treatment, cells were stimulated with 100 ng/ml EGF for 10 minutes to promote AKT and ERK activation. Later, the whole-cell extracts were obtained by the lysis of the cells (Cytoskeleton) in the presence of proteases and phosphatase inhibitors. Subsequently, the protein extracts were incubated at 4°C for 40 minutes to be clarified by centrifugation for 10 minutes at 14,000 rpm, at 4°C. The protein concentration of each extract was determined by using the Precision Red Advanced Protein Assay Reagent (Cytoskeleton) Then, approximately 25 μg of protein extract was electrophoresed in 10% sodium dodecyl sulfate–polyacrylamide gel electrophoresis (SDS-PAGE) and transferred to polyvinylidene fluoride (PVDF) membranes (Millipore, Billerica, MA, USA). Blots were probed using the following primary antibodies: Total ERK (Cell Signaling, Danvers, MA, USA), pERK (Cell Signaling), Total AKT (Cell Signaling), pAKT (Cell Signaling), GSK3β (Cell Signaling), and cyclin D1 (Abcam) at a 1:1,000 dilution. As a control, an anti-GAPDH antibody (GeneTex, Irvine, CA, USA) was employed at a 1:100,000 dilution and γ-Tubulin (Invitrogen) 1:5,000. Densitometric analysis of blots was performed using the software ImageJ version 1.45 (National Institutes of Health, Bethesda, […], USA).

MDA-MB-231RR cells = test: Cell cycle analysis (propidium iodide, flow cytometry); details: 3 h at IC50-48H, control 35.6%
Method: (§2) After 3-h incubation, cells were harvested, washed twice in ice-cold PBS, and fixed overnight in 70% ethanol at 4°C. Then, cells were washed in PBS, collected by centrifugation, and stained with staining buffer (PBS with 50 µg/ml propidium iodide and 100 µg/ml RNase A).

MDA-MB-231 cells [2] = test: as above; details: MDA-MB-231, 3 h at IC50-48H; control 10.0%
Method: as §2

MDA-MB-231 cells [3] = test: XTT cell viability assay and IC50 determination; details: for IC50: XTT, ± SD; for concentration from which a significant cytotoxic effect is seen: compared to vehicle (DMSO)
Method: In order to evaluate the effect of the C14 and P8 compounds over MCF-10A, MCF-7, MDA-MB-231, and […] cell lines, the IC50 of those molecules was determined. In brief, all the cell lines were seeded at a density of 15,000 cells per well in a 96-well microtiter plate (Corning) in a corresponding growth medium for 24 h. Then, cells were treated with increasing concentrations (from 0 to 200 μM) of the C14 and P8 compounds (Enamine, Kyiv, Ukraine). As a positive control, increased concentrations of cisplatin (from 0 to 200 µM) (Accord, Mexico City, Mexico) were employed. Due to that, dimethyl sulfoxide (DMSO) was used as a vehicle, and its increased concentrations were evaluated as the negative control. All the samples were maintained under growth conditions for 24 h and 48 h. At the end of each time, cell viability was determined using the XTT Cell Proliferation Kit II (Roche Applied Science, Mannheim, Germany) following the manufacturer’s protocol. The absorbance was measured in a spectrophotometer Synergy-HTX (BioTek) at a wavelength of 450–500 nm with a reference wavelength of 650 nm. Cell proliferation was expressed as a percentage of viability [(absorbance of treated cells/absorbance of untreated cells × 100)] ± SD.

[4] = system: cyclin D1 and GSK3β in MCF-10A cells; test: Western blotting of cyclin D1 and GSK3β; details: 3 h, densitometry; for reduction in cyclin D1 protein: C14 and P8 at IC50-24 (Figure 7 legend); for reduction in GSK3β: IC50-24 (Figure 7 legend)
Method: as §1

[5] = Apoptosis/necrosis assay (Annexin V–propidium iodide, flow cytometry); details: human, MCF-10A cells, 24 h at IC50-24, flow cytometry
Method: Apoptosis and necrosis were determined using the Apoptosis/Necrosis Detection kit (Abcam, Cambridge, UK) according to the manufacturer’s instructions. In brief, approximately 500,000 cells were seeded in 6-well plates (Corning) for 24 h. […] Cells were harvested and collected by centrifugation. All the samples were analyzed in triplicate using flow cytometry equipment FACSCalibur instrument (BD Biosciences, San Jose, CA, USA) at […] and 575-nm emission. Data analysis was performed using the FlowJo software (Tree Star Inc., Ashland, OR, USA). All experiments were performed in triplicate.

| Compound | reduction of colony growth (MCF-10A cells) [%] | reduction in pAKT [1] [%] | reduction in pERK [1] [%] | percentage of cells in S phase (MDA-MB-231RR cells) [%] | percentage of cells in G2/M (MDA-MB-231 cells [2]) [%] | IC50 (MDA-MB-231 cells [3]; Homo sapiens, MDA-MB-231, 24 h, read-out: IC50-24) [µM] | IC50 (MDA-MB-231 cells [3]; Homo sapiens, MDA-MB-231, 48 h, read-out: IC50-48) [µM] | concentration from which a significant cytotoxic effect is seen (MDA-MB-231 cells [3]; MDA-MB-231, 48 h) [µM] | reduction in cyclin D1 protein [4] [%] | reduction in GSK3β [4] [%] | viability at 24 h [5] [%] | IC50 (MDA-MB-231 cells [3]; MDA-MB-231, 24 h, read-out: IC50-24) [µM] | IC50 (MDA-MB-231 cells [3]; MDA-MB-231, 48 h, read-out: IC50-48) [µM] |
| --- | --- | --- | --- | --- | --- | --- | --- | --- | --- | --- | --- | --- | --- |
| O=C(CN1CCN(c2cccc(Cl)c2)CC1)N[C@@H]1CCOc2ccccc21 [P8, 2-[4-(3-chlorophenyl)piperazin-1-yl]-N-[(4R)-chroman-4-yl]acetamide] | 48 | 25 | 40 | 26.4 | 8.2 | 140 ± 33.5 | 63.2 ± 10.6 | ≥ 10 | 40 | 40 | 94.3 |  |  |
| N.N.[Cl][Pt][Cl] [Cisplatin, cisplatin, reference compound] | 95 |  |  |  |  |  |  |  |  |  |  |  |  |
| CN(CC(=O)NC1CCOc2ccccc21)Cc1cccc(Cl)c1 (stereo not drawn) [C14, 2-[(3-chlorophenyl)-methyl-methyl-amino]-N-croman-4-yl-acetamide] |  | 25 | 40 | 20.7 | 6.4 |  |  | ≥ 10 | 40 | 10 |  | 91.1 ± 3.9 | 60 ± 6.6 |
